Biological target: T1, Dihydrofolate reductase (Rattus norvegicus, UniProt Q920D2)
T1 sequence (Q920D2 whole entry): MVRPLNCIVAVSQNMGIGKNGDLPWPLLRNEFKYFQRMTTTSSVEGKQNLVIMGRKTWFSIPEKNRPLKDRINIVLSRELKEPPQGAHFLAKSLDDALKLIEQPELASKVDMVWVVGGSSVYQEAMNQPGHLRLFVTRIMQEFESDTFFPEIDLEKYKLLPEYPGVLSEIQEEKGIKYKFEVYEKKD
Test: Inhibition of rat liver Dihydrofolate reductase (rlDHFR)

IC50 | Structure (SMILES)
160 nM | Nc1nc(N)c2cc(COC(=O)c3ccc(C(=O)N[C@@H](CCCC(=O)O)C(=O)O)cc3)ccc2n1
150 nM | Nc1nc(N)c2cc(COC(=O)c3ccc(C(=O)N[C@H](CCC(=O)O)C(=O)O)cc3)ccc2n1
